In patent EP1506969B1, “Compounds with growth hormone releasing properties” (Helsinn Therapeutics (U.S.), Inc., priority 1998, dated 2010) one finds Pan. enzyme mix and Carboxy-peptidase mix data, which are given here for 2 compounds.

Series [1] deals with trypsin, chymotrypsin and elastase. As to the kind of experiment: Metabolic stability in pancreatic enzyme mix (ESMS, selected ion monitoring). As to conditions: stability: decrease in SIM signal after 24 h in degradation solution, chymotrypsin and elastase in 100 mM ammoniumbicarbonate pH 8.0, 37°C.
Protocol: (§1) Compounds is dissolved at a concentration of 1 mg/ml in water. 25 ml of this solution is added to 175 ml of the respective enzyme-solution (resulting in an enzyme:substrate ratio (w/w) of approximately 1:5). The solution is left at 37°C overnight. 10 ml of the various degradation solutions is analyzed against a corresponding zero-sample using flow injection electrospray mass spectrometry (ESMS) with selected ion monitoring of the molecular ion. If the signal has decreased more than 20% compared to the zero-sample, the remainder of the solution is analyzed by HPLC and mass spectrometry in order to identify the extent and site(s) of degradation precisely.
(§2) Enzymes (trypsin, chymotrypsin, elastase aminopeptidase M and carboxypeptidase Y and B) were all purchased from Boehringer Mannheim GmbH (Mannheim, Germany)
Pancreatic enzyme mix: trypsin, chymotrypsin and elastase in 100 mM ammoniumbicarbonate pH 8.0 (all concentrations 0.025 mg/ml).
(§3) Mass spectrometric analysis was performed using two different mass spectrometers. […]
(§4) Quantification of the compounds (before and after degradation) was done on the API III instrument using single ion monitoring of the molecular ion in question with flow injection of the analyte. […]
Series [2] concerns carboxypeptidase Y and B. As to the kind of experiment: Metabolic stability in carboxypeptidase mix (ESMS, selected ion monitoring). As to conditions: stability: decrease in SIM signal after 24 h in degradation solution; carboxypeptidase Y and B in 50 mM ammoniumacetate pH 4.5, 37°C.
Protocol: Compounds of formula I may be evaluated for their metabolic stability using the procedure described below:
as §1, §2
Carboxypeptidase mix: carboxypeptidase Y and B in 50 mM ammoniumacetate pH 4.5 (all concentrations 0.025 mg/ml).
as §3, §4

Square brackets hold non-standard residues; d marks the D form. Peptide text beside a SMILES is read from it. d2Nal = N[C@H](Cc1ccc2ccccc2c1)C(=O)O

For `C[C@H](NC(=O)[C@@H](Cc1c[nH]c2ccccc12)NC(=O)[C@@H](N)Cc1c[nH]cn1)C(=O)N[C@@H](Cc1c[nH]c2ccccc12)C(=O)N[C@H](Cc1ccccc1)C(=O)N[C@@H](CCCCN)C(N)=O` [GHRP-6] (H-H[dW]AW[dF]K-NH2), the Pan. enzyme mix result in series [1] is “- (Unstable (more than 20% decrease in SIM signal after 24 h in degradation solution))”. For the same compound, the Carboxy-peptidase mix entry in series [2] is given as “- (Unstable (more than 20% decrease in SIM signal after 24 h in degradation solution))”.
Regarding `C[C@H](NC(=O)[C@@H](Cc1ccc2ccccc2c1)NC(=O)[C@@H](C)N)C(=O)N[C@@H](Cc1c[nH]c2ccccc12)C(=O)N[C@H](Cc1ccccc1)C(=O)N[C@@H](CCCCN)C(N)=O` [GHRP-2] (H-[dA][d2Nal]AW[dF]K-NH2), the Pan. enzyme mix result in series [1] was “- (Unstable (more than 20% decrease in SIM signal after 24 h in degradation solution))”. Moreover, the Carboxy-peptidase mix entry in series [2] is reported as “- (Unstable (more than 20% decrease in SIM signal after 24 h in degradation solution))”.
